Test results reported in patent publication US20230255966A1, “A COMBINATION OF A CBP/P300 BROMODOMAIN INHIBITOR AND AN EGFR INHIBITOR FOR USE IN TREATING EGFR-MUTANT NSCLC” (TOLREMO THERAPEUTICS AG, priority 2020, published 2023).

Tested on: HCC4006 cells
Assay: Label-free determination of cell proliferation (CELIGO)
Conditions: 21 days (FIG. 10)
Procedure: 2000 HCC4006 (ATCC; CRL2871) were seeded into 96 well plates (Greiner BioOne 655090) one day prior to drug treatment in RPMI medium containing 10% FCS and 2 mM L-Glutamine. The next day wells were imaged label-free using brightfield imaging on a CELIGO Image Cytometer to determine the initial cell number. Subsequently cells were treated with either DMSO, with single drugs (osimertinib and each of the CBP/p300 bromodomain inhibitors) or drug combinations of 100 nM osimertinib and one CBP/p300 bromodomain inhibitor with drug concentrations given below. Plates were regularly imaged over weeks using brightfield mode (CELIGO Imaging Cytometer) to track cell proliferation in each well over time. Growth medium and treatments were replenished twice weekly. […] Cell numbers were determined using CELIGO software's built-in “direct cell counting” analysis tool in the brightfield mode.

Structure (SMILES): CO[C@H]1CC[C@H](n2c([C@@H]3CCCC(=O)N3c3ccc(F)c(F)c3)nc3cc(-c4c(C)noc4C)ccc32)CC1 [CCS1477]
- Development of drug resistance / re-growth (HCC4006, combined with 100 nM osimertinib): prevent the development of drug resistance
- Effect on cell proliferation on their own (HCC4006, single agent (1 μM Compound A, 0.2 μM Compound C, 0.2 μM CCS1477, 1 μM FT-6876, 0.2 μM GNE-781)): do not affect cell proliferation
